Experimental findings from publication PMC4547393, “Resin-acid derivatives as potent electrostatic openers of voltage-gated K channels and suppressors of neuronal excitability” (Scientific Reports, 2015) are described below.

Common to all, as to type: cell-based
Assay [1] addresses T1, 3R Shaker K channel (Drosophila melanogaster, UniProt P08510, DEL6-46/M356R/A359R).
T1 construct: gene Sh
The assay can be described thus: two-electrode voltage clamp in Xenopus oocytes, G(V) shift at […].

The target of assay [2] is T2, Shaker K channel (WT) (Drosophila melanogaster, UniProt P08510, DEL6-46).
T2 construct: gene Sh
The assay is described as above.

The target in assay [3] is T3, 3R Shaker K channel (Drosophila melanogaster, UniProt P08510, A359R/DEL6-46/M356R).
T3 construct: gene Sh
Nature of the assay: two-electrode voltage clamp in Xenopus oocytes, G(V) shift.

Assay [4] addresses T3, 3R Shaker K channel. Nature of the assay: two-electrode voltage clamp in Xenopus oocytes, G(V) shift; also patch clamp in CHO-K1 cells.
Assay [5] addresses T2, Shaker K channel (WT). Nature of the assay: two-electrode voltage clamp in Xenopus oocytes, G(V) shift and pH dependence at […].

T2 sequence (P08510 with tags, fused parts or gaps DEL6-46): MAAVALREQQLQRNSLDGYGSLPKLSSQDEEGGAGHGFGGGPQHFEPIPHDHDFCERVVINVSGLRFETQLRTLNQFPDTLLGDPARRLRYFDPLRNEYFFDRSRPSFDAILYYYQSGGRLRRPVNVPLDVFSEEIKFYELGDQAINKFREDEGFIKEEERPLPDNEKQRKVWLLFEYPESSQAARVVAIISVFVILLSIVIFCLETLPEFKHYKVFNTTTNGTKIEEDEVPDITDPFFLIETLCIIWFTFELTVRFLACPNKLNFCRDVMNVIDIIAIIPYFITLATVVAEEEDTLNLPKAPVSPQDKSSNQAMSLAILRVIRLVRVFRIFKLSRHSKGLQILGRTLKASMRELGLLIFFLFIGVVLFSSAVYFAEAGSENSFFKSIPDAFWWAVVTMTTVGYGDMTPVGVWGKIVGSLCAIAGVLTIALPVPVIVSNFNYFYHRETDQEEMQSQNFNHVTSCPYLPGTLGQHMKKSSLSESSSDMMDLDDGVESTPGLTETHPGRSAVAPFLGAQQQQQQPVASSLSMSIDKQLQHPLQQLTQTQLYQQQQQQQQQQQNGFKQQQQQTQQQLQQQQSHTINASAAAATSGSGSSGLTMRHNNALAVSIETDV
T1 sequence (P08510 with tags, fused parts or gaps DEL6-46/M356R/A359R): as the sequence (P08510 with tags, fused parts or gaps DEL6-46) above, with M315R, A318R counted along it
T3 sequence (P08510 with tags, fused parts or gaps DEL6-46/M356R/A359R): as the sequence (P08510 with tags, fused parts or gaps DEL6-46) above, with M315R, A318R counted along it

Regarding `C=C[C@@]1(C)CC[C@H]2C(=CC[C@@H]3[C@]2(C)CCC[C@@]3(C)C(=O)O)C1` [compound 2, isopimaric acid], the “two-electrode voltage clamp in Xenopus oocytes, G(V) shift at 100 μM” value at 3R Shaker K channel [1] is listed as −15.9 ± 1.8 mV.

For the molecule `CC(C)C1=CC2=CC[C@@H]3[C@](C)(CCC[C@@]3(C)C(=O)O)[C@H]2CC1` [compound 3, abietic acid], the “two-electrode voltage clamp in Xenopus oocytes, G(V) shift at 100 μM” value at 3R Shaker K channel [1] was −11.2 ± 2 mV.

As for `CC(C)c1ccc2c(c1)CC[C@H]1[C@](C)(C(=O)O)CCC[C@]21C` [compound 4, dehydroabietic acid], the “two-electrode voltage clamp in Xenopus oocytes, G(V) shift at 100 μM” value at Shaker K channel (WT) [2] is given as −2.3 mV. The concentration for a half-maximal effect (EC50) at 3R Shaker K channel [3] is 89 µM.

Turning to `C=CCON=C1C[C@H]2[C@](C)(C(=O)O)CCC[C@]2(C)c2ccc(C(C)C)cc21` [compound 19, Compound 19], the “two-electrode voltage clamp in Xenopus oocytes, G(V) shift at 100 μM” value on 3R Shaker K channel [1] was −17.8 ± 1.9 mV.

Consider `CON=C1C[C@H]2[C@](C)(C(=O)O)CCC[C@]2(C)c2cc(Br)c(C(C)C)cc21` [compound 33, Compound 33], for which, on 3R Shaker K channel [4], the half-maximal effective concentration (EC50) came out at 37 µM. Besides, at Shaker K channel (WT) [5], the “two-electrode voltage clamp in Xenopus oocytes, G(V) shift and pH dependence at” value is “For all three compounds, the induced shifts are smaller on Shaker WT compared to Shaker 3R K channels”.

As to `C[C@@]1(C(=O)O)CCC[C@]2(C)c3cc(Cl)c(Cl)c(Cl)c3CC[C@@H]12` [compound 77, Compound 77], the “two-electrode voltage clamp in Xenopus oocytes, G(V) shift at 100 μM” value on Shaker K channel (WT) [2] is on record as −21.2 mV. For the same molecule, the concentration giving a half-maximal response (EC50) on 3R Shaker K channel [4] worked out at 37 µM.
